Laboratory results: ChEMBL document CHEMBL4184210, “Optimization of novel monobactams with activity against carbapenem-resistant Enterobacteriaceae - Identification of LYS228” (Bioorg Med Chem Lett, 2018)
Values after ≈ are worked out from the molar mass of the structure shown.

Tests used:
Escherichia coli [1] = assay: Antimicrobial activity against Escherichia coli expressing beta-lactamase KPC-2 by CLSI broth microdilution method; type: functional
Escherichia coli [2] = assay: Antimicrobial activity against Escherichia coli expressing beta-lactamase NDM-1 by CLSI broth microdilution method; type: functional
[3] = Chemical stability in pH 7.4 potassium phosphate buffer assessed as half life for compound hydrolysis at 37 degC by UPLC and mass spectrometry; type: physicochemical
Escherichia coli [4] = assay: microbe, parasite or virus in culture
Description: Antimicrobial activity against wild type Escherichia coli by CLSI broth microdilution method

Escherichia coli [5] = assay: microbe, parasite or virus in culture; remark: listed apart in the source
Description: Antimicrobial activity against Escherichia coli expressing beta-lactamase CTXM-15 by CLSI broth microdilution method

Escherichia coli [6] = assay: microbe, parasite or virus in culture; remark: listed apart in the source
Description: Antimicrobial activity against Escherichia coli expressing beta-lactamase SHV-12 by CLSI broth microdilution method

Escherichia coli [7] = assay: microbe, parasite or virus in culture; remark: listed apart in the source
Description: Antimicrobial activity against Escherichia coli expressing beta-lactamase TEM-10 by CLSI broth microdilution method

Escherichia coli [8] = assay: microbe, parasite or virus in culture; remark: listed apart in the source
Description: Antimicrobial activity against Escherichia coli expressing beta-lactamase AmpC by CLSI broth microdilution method

Escherichia coli [9] = assay: microbe, parasite or virus in culture; remark: listed apart in the source
Description: Antimicrobial activity against Escherichia coli expressing beta-lactamase CMY-2 by CLSI broth microdilution method

Compound | MIC (Escherichia coli [1]) [µg/mL] | MIC (Escherichia coli [2]) [µg/mL] | half-life [3] [h] | MIC (Escherichia coli [4]) [µg/mL] | MIC (Escherichia coli [5]) [µg/mL] | MIC (Escherichia coli [6]) [µg/mL] | MIC (Escherichia coli [7]) [µg/mL] | MIC (Escherichia coli [8]) [µg/mL] | MIC (Escherichia coli [9]) [µg/mL]
CC(C)(O/N=C(\C(=O)N[C@@H]1C(=O)N(S(=O)(=O)O)[C@@H]1CN1CCCC1=O)c1csc(N)n1)C(=O)O (stereo in doubt) | 2 (≈ 3.86 µM) | 1 (≈ 1.93 µM) | > 1000 | 1 (≈ 1.93 µM) | 2 (≈ 3.86 µM) | 2 (≈ 3.86 µM) | 4 (≈ 7.71 µM) | 16 (≈ 30.9 µM) | –
CC(C)(O/N=C(\C(=O)N[C@@H]1C(=O)N(S(=O)(=O)O)[C@@H]1CN1CCNC1=O)c1csc(N)n1)C(=O)O (stereo in doubt) | 1 (≈ 1.92 µM) | 1 (≈ 1.92 µM) | > 1000 | 0.5 (≈ 0.962 µM) | 1 (≈ 1.92 µM) | 1 (≈ 1.92 µM) | 4 (≈ 7.7 µM) | 2 (≈ 3.85 µM) | –
Cc1nnn(C[C@@H]2[C@H](NC(=O)/C(=N\OC(C)(C)C(=O)O)c3csc(N)n3)C(=O)N2S(=O)(=O)O)n1 (stereo in doubt) | 8 (≈ 15.5 µM) | 2 (≈ 3.86 µM) | – | 2 (≈ 3.86 µM) | 1 (≈ 1.93 µM) | 8 (≈ 15.5 µM) | 8 (≈ 15.5 µM) | 8 (≈ 15.5 µM) | –
CC(C)(O/N=C(\C(=O)N[C@@H]1C(=O)N(S(=O)(=O)O)[C@@H]1CN1CCOC1=O)c1csc(N)n1)C(=O)O (stereo in doubt) | 0.5 (≈ 0.961 µM) | 0.5 (≈ 0.961 µM) | 483 | 0.5 (≈ 0.961 µM) | 0.5 to 1 (≈ 0.961 to 1.92 µM) | 1 (≈ 1.92 µM) | 2 (≈ 3.84 µM) | 2 (≈ 3.84 µM) | 4 (≈ 7.68 µM)
CC(C)(O/N=C(\C(=O)N[C@@H]1C(=O)N(S(=O)(=O)O)[C@@H]1Cn1cnnc1)c1csc(N)n1)C(=O)O (stereo in doubt) | 16 (≈ 31.8 µM) | 1 (≈ 1.99 µM) | 113 | 1 (≈ 1.99 µM) | 1 (≈ 1.99 µM) | 16 (≈ 31.8 µM) | 32 (≈ 63.7 µM) | 2 (≈ 3.98 µM) | –

Further lines, results first:

MIC (Escherichia coli [1]) [µg/mL] | MIC (Escherichia coli [2]) [µg/mL] | half-life [3] [h] | MIC (Escherichia coli [4]) [µg/mL] | MIC (Escherichia coli [5]) [µg/mL] | MIC (Escherichia coli [6]) [µg/mL] | MIC (Escherichia coli [7]) [µg/mL] | MIC (Escherichia coli [8]) [µg/mL] | MIC (Escherichia coli [9]) [µg/mL] | Compound
4 (≈ 7.93 µM) | 2 (≈ 3.96 µM) | > 1000 | 2 (≈ 3.96 µM) | 4 (≈ 7.93 µM) | 8 (≈ 15.9 µM) | 16 (≈ 31.7 µM) | 64 (≈ 127 µM) | – | CC(C)(O/N=C(\C(=O)N[C@@H]1C(=O)N(S(=O)(=O)O)[C@@H]1CN1CCC1=O)c1csc(N)n1)C(=O)O (stereo in doubt)
1 (≈ 1.99 µM) | 0.5 (≈ 0.995 µM) | 978 | 0.5 (≈ 0.995 µM) | 0.5 (≈ 0.995 µM) | 1 (≈ 1.99 µM) | 2 (≈ 3.98 µM) | 8 (≈ 15.9 µM) | – | CC(C)(O/N=C(\C(=O)N[C@@H]1C(=O)N(S(=O)(=O)O)[C@@H]1Cn1nccn1)c1csc(N)n1)C(=O)O (stereo in doubt)
2 (≈ 3.98 µM) | 0.5 (≈ 0.995 µM) | 257 | 0.5 (≈ 0.995 µM) | 1 (≈ 1.99 µM) | 4 (≈ 7.96 µM) | 2 (≈ 3.98 µM) | 2 to 4 (≈ 3.98 to 7.96 µM) | 8 (≈ 15.9 µM) | CC(C)(O/N=C(\C(=O)N[C@@H]1C(=O)N(S(=O)(=O)O)[C@@H]1Cn1ccnn1)c1csc(N)n1)C(=O)O (stereo in doubt)
4 (≈ 7.88 µM) | 0.125 (≈ 0.246 µM) | 149 | 0.25 (≈ 0.493 µM) | 0.25 (≈ 0.493 µM) | 8 (≈ 15.8 µM) | 2 (≈ 3.94 µM) | 0.5 (≈ 0.985 µM) | – | CC(C)(O/N=C(\C(=O)N[C@@H]1C(=O)N(S(=O)(=O)O)[C@@H]1CNC(=O)CN)c1csc(N)n1)C(=O)O (stereo in doubt)
8 (≈ 15 µM) | 8 (≈ 15 µM) | 214 | 4 (≈ 7.51 µM) | 8 (≈ 15 µM) | 4 (≈ 7.51 µM) | 4 (≈ 7.51 µM) | 16 (≈ 30 µM) | – | CC(C)(O/N=C(\C(=O)N[C@@H]1C(=O)N(S(=O)(=O)O)[C@@H]1CN1CCCCC1=O)c1csc(N)n1)C(=O)O (stereo in doubt)
8 (≈ 15.3 µM) | 4 (≈ 7.67 µM) | 212 | 4 (≈ 7.67 µM) | 4 (≈ 7.67 µM) | 4 (≈ 7.67 µM) | – | 16 (≈ 30.7 µM) | – | CN(C[C@@H]1[C@H](NC(=O)/C(=N\OC(C)(C)C(=O)O)c2csc(N)n2)C(=O)N1S(=O)(=O)O)C(=O)CN (stereo in doubt)
> 64 | > 64 | 3.5 | > 64 | > 64 | > 64 | > 64 | > 64 | – | CC(C)(O/N=C(\C(=O)N[C@@H]1C(=O)N(S(=O)(=O)O)[C@@H]1Cn1ccc(N)n1)c1csc(N)n1)C(=O)O (stereo in doubt)
